From patent US11421237B2, “Pair of amino acid sequences for monitoring formation of TDP-43 oligomer in living cells via bimolecular fluorescence complementation” (KOREA INSTITUTE OF SCIENCE AND TECHNOLOGY, priority 2019, dated 2022)
Several values for one entry are separate records, joined by “and”; a condition that tells them apart may be missing. Equal values may be shown once. Entries after “also recorded” stand apart in the source; their conditions may differ. Peptide text beside a SMILES is read from it. * marks the point of attachment. Cbz = O=C(OCc1ccccc1)*

How the values were obtained:
Assay type in all cases: cell-based, human
TDP-43-BiFC cells [1] = assay: BiFC fluorescence analysis of TDP-43 oligomer formation in TDP-43-BiFC cells (384-well, Operetta); conditions: 48 hours at 37° C.; for increase of BiFC fluorescence in the cells compared to untreated cells: forskolin 30 μM, scriptaid 3 μM, thapsigargin 1 μM, ionomycin 1 μM, Cu^2+ 1 μM, Zn^2+ 30 μM; for change in BiFC fluorescence of TDP-43 (in words): MG132 5 μM, α-synuclein 5 μg/ml, tauK18^P301L 5 μg/ml
Method: In order to develop a TDP-43-BiFC cell line, the TDP-43-VN173 and TDP-43-VC155 constructs shown in FIG. 2 were co-transfected into HEK293 BiFC cells. For establishment of a stable cell line, the transfected cells were selected by culture with growth medium containing 100 μg/mL geneticin (G418; Sigma). In addition, the selected cells were sorted using FACSAria (BD Bioscience) into cells showing fluorescence. The sorted TDP-43-BiFC cells were kept in DMEM medium containing 10% FBS, 100 units/mL penicillin, 100 μg/mL streptomycin and 100 μg/mL G418 in a humidified atmosphere at 37° C. under 5% CO2.
The TDP-43-BiFC cells prepared in Example 1 above were treated with a compound that induces PTMs of protein, a compound that ER stress in cells, amyloid protein, metal ions, or the like, and changes in BiFC fluorescence in the cells were examined. Specifically, for fluorescence analysis, the TDP-43-BiFC cells were grown in a 384-well plate and treated with each of forskolin (30 μM), scriptaid (3 μM), thapsigargin (1 μM), ionomycin (1 μM), MG132 (5 μM), α-synuclein (5 μg/ml), tauK18^P301L (5 μg/ml), Cu^2+ (1 μM) and Zn^2+ (30 μM), followed by culture at 37° C. for 48 hours. Fluorescence images were obtained using Operetta® (PerkinElmer), and the fluorescence intensity in the nucleus and the cytoplasmic fluorescence intensity were analyzed using Harmony3.1 software (PerkinElmer).

TDP-43-BiFC cells [2] = assay: Intracellular distribution of BiFC fluorescence, high-magnification imaging; conditions: treated as in Example 2 (scriptaid 3 μM, 48 hours); 1000× magnification
Description: Next, the pattern of intracellular distribution by an increase in TDP-43 oligomer formation was examined. Specifically, TDP-43 formation was induced in the same manner as Example 2 above, and then the whole plate was automatically imaged using Operetta®, and high-resolution images were obtained using a Nikon Eclipse inverted microscope (Ti, Nikon) at 1000× magnification.

TDP-43-BiFC cells [3] = assay: Isolation of TDP-43 oligomer with GFP-trap beads and immunoblot with anti-TDP-43 antibody; conditions: 24 hours at 37° C., forskolin 30 μM, scriptaid 1 μM, thapsigargin 0.5 μM, ionomycin 1 μM, SDS-PAGE, immunoblot
Method: Lysates of the TDP-43-BiFC cells treated with each of the four drugs in Example 3 and a lysate of untreated cells were prepared and TDP-43 oligomers were isolated therefrom. Specifically, TDP-43-BiFC cells were grown in a 6-well plate, treated with each of forskolin (30 μM), scriptaid (1 μM), thapsigargin (0.5 μM) and ionomycin (1 μM), and cultured at 37° C. for 24 hours, and then lysates of the cells were prepared. GFP-trap beads shown in FIG. 5a were added to the lysates which were then incubated at 4° C. for 16 hours, and the oligomerized TDP-43 protein was isolated. The isolated protein was separated by SDS-PAGE, and immunoblot analysis was performed using anti-TDP-43 antibody.

Molecule | increase of BiFC fluorescence in the cells compared to untreated cells (TDP-43-BiFC cells [1]) | change in BiFC fluorescence of TDP-43 (in words) (TDP-43-BiFC cells [1]) | other results
[Cu+2] [Cu^2+] | about 2 fold | – | –
CC(C)C[C@@H](C=O)NC(=O)[C@H](CC(C)C)NC(=O)[C@H](CC(C)C)NC(=O)OCc1ccccc1 [MG132] (Cbz-Leu-Leu-Leu-aldehyde) | – | no change | –
[Zn+2] [Zn^2+] | about 2 fold | – | –
C[C@H](CCC(=O)O)C[C@H](C)C[C@H](C)C(=O)/C=C(\O)[C@H](C)C[C@H](C)C/C=C/[C@@H](C)[C@@H](O)[C@@H](C)[C@@H](O)C[C@@H]1CC[C@@](C)([C@H]2CC[C@@](C)([C@@H](C)O)O2)O1 [ionomycin] | 7 fold | – | –
O=C(CCCCCN1C(=O)c2cccc3cccc(c23)C1=O)NO [scriptaid] | 36 fold and 48 fold | – | distribution of BiFC fluorescence in nucleus and cytoplasm (TDP-43-BiFC cells [2]): greatly increased the fluorescence not only in the nucleus but also in the cytoplasm; also recorded: significantly increased not only in the nucleus but also in the cytoplasm; amount of detected oligomerized TDP-43 protein compared to untreated cells (TDP-43-BiFC cells [3]): largest amount
C/C=C(/C)C(=O)O[C@H]1C(C)=C2[C@H]([C@@H]1OC(=O)CCCCCCC)[C@@](C)(OC(C)=O)C[C@H](OC(=O)CCC)[C@@]1(O)[C@H]2OC(=O)[C@@]1(C)O [thapsigargin] | 31 fold | – | –
tauK18^P301L | – | did not increase | –
α-synuclein | – | did not increase | –
